Assay results taken from ChEMBL document CHEMBL1201862, “PubChem BioAssay data set” (2004).
Blank lines part the entries; values can stand above or below the molecule they belong to. Calls of active or inactive are those of the source.

Columns and labels:
[1] = biological target: T1, Polyadenylate-binding protein 1 (Homo sapiens, UniProt P11940); experiment: PABP1 MLLE–PAM2 interaction inhibitors, dose response, miRNA deadenylation inhibitor project, biochemical, fluorescence polarization, Cy5-PAM2 peptide, secondary (AID 602260); assay type: functional; settings: read-out: IC50_Mean
[2] = biological target: T1, Polyadenylate-binding protein 1; experiment: PABP1 MLLE–PAM2 binding inhibitor potency, dose response, biochemical, fluorescence polarization, FITC-PAM2 peptide (AID 602259); assay type: functional; settings: read-out: IC50_Mean
[3] = growth suppression of PTEN-null colon cells, dose response, cell-based, HCT116 PTEN knockout (AID 1047); assay type: functional;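 note: HCT116 colon tumor cells with PTEN knocked out; cells exposed to compound for 60 hours before readout; potency for loss of cell viability measured by luminescence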
[4] = biological target: T2, Calpain-2 catalytic subunit (Sus scrofa, UniProt P43367); experiment: pig calpain II inhibitor potency, dose response, biochemical, fluorogenic peptide substrate (AID 1420); assay type: functional
T2 sequence (P43367 whole entry): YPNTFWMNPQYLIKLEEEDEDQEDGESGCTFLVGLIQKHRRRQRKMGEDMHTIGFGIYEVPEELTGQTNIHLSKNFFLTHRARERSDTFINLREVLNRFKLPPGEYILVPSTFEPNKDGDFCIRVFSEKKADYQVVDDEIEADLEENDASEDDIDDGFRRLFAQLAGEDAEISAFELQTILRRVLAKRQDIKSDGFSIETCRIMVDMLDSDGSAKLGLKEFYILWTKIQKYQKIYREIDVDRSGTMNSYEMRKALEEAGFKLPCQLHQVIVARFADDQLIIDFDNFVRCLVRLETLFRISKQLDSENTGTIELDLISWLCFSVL

[5] = growth suppression of beta-catenin-knockout colon cells, dose response, cell-based, HCT116, human colon tumor (AID 1045); assay type: functional;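 note: HCT116 colon tumor cells with beta catenin knocked out; cells exposed to compound for 60 hours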
[6] = P. falciparum Dd2 growth inhibitors, dose response, SYBR Green, cherry-picked samples (AID 1159567); assay type: functional, cell-based
[7] = cytotoxicity in HEK-293T cells, dose response, cytotoxicity control for TCR NF-kB inhibitor project, luminescence, T-cell screen hits (AID 489026); assay type: functional, cell-based;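 note: cells exposed to compound about 14 hours before the viability readout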
INS1 = experiment: beta cell apoptosis inhibitors, cytokine rescue, dose response, luminescence, retest (AID 449756); assay type: functional, cell-based; settings: Rattus norvegicus;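 note: cell death triggered by IL-1 beta plus TNF-alpha plus IFN-gamma mixture; protective hits raise ATP signal compared with cytokine alone wells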
[8] = Shn3 3'UTR reporter inhibitors, dose response, cell-based, Clone20 osteoblasts, firefly luciferase, cherry-picked (AID 624132); assay type: functional;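 note: firefly luciferase luminescence from reporter carrying the Shn3 3'UTR in osteoblasts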
[9] = HepG2 cell cytotoxicity, dose response, cytotoxicity control for Shn3 inhibitor project, CellTiter-Glo, cherry-picked (AID 624134); assay type: functional, cell-based
[10] = biological target: Induced myeloid leukemia cell differentiation protein Mcl-1 (Homo sapiens, UniProt Q07820); assay type: functional
cells [11] = assay type: functional, cell-based
cells [12] = assay type: functional, cell-based; remark: listed apart in the source
BJ [13] = experiment: cytotoxicity toward BJ-TERT fibroblasts, dose response, cell-based, RAS-independent, luminescence (AID 1933); assay type: functional; settings: Homo sapiens
BJ [14] = experiment: cells; assay type: functional, cell-based; settings: Homo sapiens
BJ [15] = experiment: cytotoxicity toward BJ-TERT-LT-ST fibroblasts, dose response, cell-based, RAS-independent, luminescence (AID 1935); assay type: functional; settings: Homo sapiens;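 note: BJ fibroblasts immortalized with TERT plus LT and ST oncogenes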
[16] = cytotoxicity toward DRD oncogenic fibroblasts, dose response, cell-based, non-viral oncogenic, luminescence (AID 1934); assay type: functional; settings: Homo sapiens

Chain of Induced myeloid leukemia cell differentiation protein Mcl-1 (Q07820 whole entry): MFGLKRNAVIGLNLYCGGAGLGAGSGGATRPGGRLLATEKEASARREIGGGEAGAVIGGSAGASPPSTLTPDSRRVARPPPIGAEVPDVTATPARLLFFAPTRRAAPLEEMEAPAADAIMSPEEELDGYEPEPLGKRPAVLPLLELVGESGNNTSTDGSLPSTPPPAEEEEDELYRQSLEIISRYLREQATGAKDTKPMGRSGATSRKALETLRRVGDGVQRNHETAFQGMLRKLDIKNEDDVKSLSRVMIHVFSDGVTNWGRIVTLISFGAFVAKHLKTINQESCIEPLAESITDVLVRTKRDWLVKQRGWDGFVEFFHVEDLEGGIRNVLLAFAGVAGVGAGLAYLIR
T1 sequence (P11940 whole entry): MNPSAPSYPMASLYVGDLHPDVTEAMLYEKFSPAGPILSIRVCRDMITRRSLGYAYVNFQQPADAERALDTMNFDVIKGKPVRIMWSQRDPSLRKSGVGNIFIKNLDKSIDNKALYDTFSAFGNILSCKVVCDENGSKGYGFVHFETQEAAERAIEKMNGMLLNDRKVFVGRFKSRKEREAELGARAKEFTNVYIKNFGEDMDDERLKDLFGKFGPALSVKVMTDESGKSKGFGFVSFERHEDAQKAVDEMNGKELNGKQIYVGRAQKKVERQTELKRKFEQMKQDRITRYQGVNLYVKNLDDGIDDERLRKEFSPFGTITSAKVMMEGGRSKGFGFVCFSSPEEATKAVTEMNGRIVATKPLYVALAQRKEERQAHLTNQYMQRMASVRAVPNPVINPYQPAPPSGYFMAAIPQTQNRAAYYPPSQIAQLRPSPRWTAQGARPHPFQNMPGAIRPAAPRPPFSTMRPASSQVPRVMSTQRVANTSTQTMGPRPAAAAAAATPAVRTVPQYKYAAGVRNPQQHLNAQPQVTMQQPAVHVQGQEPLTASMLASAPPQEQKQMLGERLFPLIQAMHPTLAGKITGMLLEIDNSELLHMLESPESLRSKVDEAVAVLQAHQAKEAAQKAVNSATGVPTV

IC50 [1]: > 66 µM (inactive)
IC50 [2]: > 66 µM (inactive)
Structure (SMILES): Cc1nnc(O)c2c(NC(=O)CSc3c(Cl)cccc3Cl)oc(C)c12

Structure (SMILES): Cn1cc([N+](=O)[O-])c(C(=O)Nc2cc(Oc3cccnc3)cc([N+](=O)[O-])c2)n1
EC50 [3]: 1.24 µM (active)
IC50 [4]: 15.3 µM (not active)
EC50 [5]: 1.02 µM (active)

Structure (SMILES): CO[C@H]1CN(C)C(=O)c2cc(NC(=O)C3CC3)ccc2OC[C@H](C)N(Cc2cccc(F)c2)C[C@H]1C
AC50 [6]: 6.05 µM (active)

Structure (SMILES): Cc1ccc(S(=O)(=O)NCc2ccncc2)cc1C
IC50 [7]: > 80 µM (inactive)
AC50 (INS1): 3.06 µM (active)
AC50 [8]: 0.585 µM (active)
AC50 [9]: 2.43 µM (active)

IC50 [10]: 3.47 µM (not active)
Structure (SMILES): COc1cc(/C=C(/NC(C)=O)C(=O)O)cc(Cl)c1OCc1ccc(Br)cc1

Structure (SMILES): CCc1nc(SCC(=O)c2ccccc2)c2ccccc2n1
EC50 (cells [11]): > 350 µM (not active)
EC50 (cells [12]): > 350 µM (not active)
IC50 [1]: > 66 µM (inactive)
IC50 [2]: > 66 µM (inactive)

IC50 [10]: 6.14 µM (not active)
Structure (SMILES): O=c1c2c3nc4ccccc4nc3n(Cc3ccccc3)c2ncn1Cc1ccco1

Structure (SMILES): CCCC#Cc1cnc2c(c1)C(=O)N([C@@H](C)CO)C[C@H](C)[C@H](CN(C)C(=O)Nc1cccc(F)c1)O2
AC50 [6]: 8.83 µM (active)

IC50 [1]: > 66 µM (inactive)
IC50 [2]: > 66 µM (inactive)
Structure (SMILES): CCCCCCC1NC(C(=O)O)CS1 (stereo not drawn)

IC50 [1]: > 66 µM (inactive)
IC50 [2]: > 66 µM (inactive)
Structure (SMILES): COc1ccc(C(=S)N2CCN(c3ccccc3Cl)CC2)cc1OC

IC50 [10]: 2.71 µM (active)
Structure (SMILES): Cc1cc(N(CCO)CCO)ccc1C(c1ccc(N(CCO)CCO)cc1C)c1ccccc1Cl

Structure (SMILES): CCOC(=O)c1c(C)[nH]c(C(=O)N/N=C/c2ccc(Br)cc2)c1C
EC50 (BJ [13]): 0.327 µM (active)
EC50 (BJ [14]): 35.1 µM (inconclusive)
EC50 (BJ [15]): 0.733 µM (inconclusive)
EC50 [16]: 0.387 µM (active)
IC50 [7]: > 80 µM (inactive)

Structure (SMILES): O=C(NC1CCCCC1)c1nc[nH]c1C(=O)Nc1ccc([N+](=O)[O-])cc1
EC50 [3]: 8.84 µM (active)
EC50 [5]: 8.87 µM (active)

Structure (SMILES): Cc1ccc2nc(N3CC(=O)Nc4ccccc43)nc(-c3ccccc3)c2c1
EC50 [3]: 11.5 µM (active)
EC50 [5]: 10.4 µM (active)

Structure (SMILES): COc1cc(-c2cc(C(=O)Nc3c(Cl)cc(Cl)cc3Cl)c3ccccc3n2)cc(OC)c1OC
EC50 [3]: 26 µM (active)
EC50 [5]: 44.6 µM (active)
